Test [1] has as its target MAPK14 (human) (UniProt Q16539). The note with it: pbmc.
Test [2] shares this target. The note with it: pbmc. This is another data set of the same source.
The target in a further test is MAPK14 (UniProt Q16539).
Test [3] deals with MAPK14, Q16539 [p38 beta Inhibition].
Test [4] addresses MAPK14 (human) (UniProt Q16539). The note with it: pbmc. The source holds these as a separate data set.
The next test relates to MAPK14 (dog). The note with it: pbmc.
In test [5] the target is MAPK14 (human) (UniProt Q16539). The note with it: pbmc. The source holds these as a separate data set.
Sequence of MAPK14 (human) (Q16539 whole entry, looked up): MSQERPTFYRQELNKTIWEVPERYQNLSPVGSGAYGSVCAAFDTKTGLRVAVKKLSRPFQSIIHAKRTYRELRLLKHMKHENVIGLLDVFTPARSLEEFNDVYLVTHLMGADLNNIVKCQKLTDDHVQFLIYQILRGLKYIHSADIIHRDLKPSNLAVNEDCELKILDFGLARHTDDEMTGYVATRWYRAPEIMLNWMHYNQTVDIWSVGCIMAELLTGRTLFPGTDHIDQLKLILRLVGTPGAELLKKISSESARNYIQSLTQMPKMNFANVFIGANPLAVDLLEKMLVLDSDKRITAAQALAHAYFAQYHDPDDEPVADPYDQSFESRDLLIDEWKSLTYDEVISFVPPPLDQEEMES
For another test, the system named is MAPK14 (rat). To be noted: pbmc.

The record followed here is the Kinase Knowledgebase extract (Sharma et al. 2016).

Sequence of MAPK14, Q16539 [p38 beta Inhibition] (Q16539 whole entry, looked up, change not shown): as the sequence (Q16539 whole entry, looked up) above
Sequence of MAPK14 (Q16539 whole entry, looked up): as above

Usually IC50 stands for the concentration needed to halve the response being measured. Low values mean greater potency, high ones weaker potency. Turning to `OCCC#Cc1nc(-c2ccc(F)cc2)c(-c2ccncc2)n1CCCc1ccccc1`, the IC50 stood at 0.003 µM on MAPK14 (human) [1]; 0.011 µM against MAPK14 (human) [2]; 1 µM at MAPK14; 11 µM in test [3]; 0.013 µM against MAPK14 (human) [4]; 0.015 µM in the test with MAPK14 (dog). For the same compound, the IC50 was determined as 0.006 µM on MAPK14 (human) [5] and 0.58 µM in the test with MAPK14 (rat).
